# Non-standard residues stand in square brackets, D forms with d. Residues, ends and D or L forms follow the SMILES beside them. ξ: configuration not given here. *: point of attachment. ξF = NC(Cc1ccccc1)C(=O)O; Cbz = O=C(OCc1ccccc1)*
# Biological target: T1, Solute carrier family 12 member 5 (Homo sapiens, UniProt Q9H2X9)
# T1 sequence (Q9H2X9 whole entry): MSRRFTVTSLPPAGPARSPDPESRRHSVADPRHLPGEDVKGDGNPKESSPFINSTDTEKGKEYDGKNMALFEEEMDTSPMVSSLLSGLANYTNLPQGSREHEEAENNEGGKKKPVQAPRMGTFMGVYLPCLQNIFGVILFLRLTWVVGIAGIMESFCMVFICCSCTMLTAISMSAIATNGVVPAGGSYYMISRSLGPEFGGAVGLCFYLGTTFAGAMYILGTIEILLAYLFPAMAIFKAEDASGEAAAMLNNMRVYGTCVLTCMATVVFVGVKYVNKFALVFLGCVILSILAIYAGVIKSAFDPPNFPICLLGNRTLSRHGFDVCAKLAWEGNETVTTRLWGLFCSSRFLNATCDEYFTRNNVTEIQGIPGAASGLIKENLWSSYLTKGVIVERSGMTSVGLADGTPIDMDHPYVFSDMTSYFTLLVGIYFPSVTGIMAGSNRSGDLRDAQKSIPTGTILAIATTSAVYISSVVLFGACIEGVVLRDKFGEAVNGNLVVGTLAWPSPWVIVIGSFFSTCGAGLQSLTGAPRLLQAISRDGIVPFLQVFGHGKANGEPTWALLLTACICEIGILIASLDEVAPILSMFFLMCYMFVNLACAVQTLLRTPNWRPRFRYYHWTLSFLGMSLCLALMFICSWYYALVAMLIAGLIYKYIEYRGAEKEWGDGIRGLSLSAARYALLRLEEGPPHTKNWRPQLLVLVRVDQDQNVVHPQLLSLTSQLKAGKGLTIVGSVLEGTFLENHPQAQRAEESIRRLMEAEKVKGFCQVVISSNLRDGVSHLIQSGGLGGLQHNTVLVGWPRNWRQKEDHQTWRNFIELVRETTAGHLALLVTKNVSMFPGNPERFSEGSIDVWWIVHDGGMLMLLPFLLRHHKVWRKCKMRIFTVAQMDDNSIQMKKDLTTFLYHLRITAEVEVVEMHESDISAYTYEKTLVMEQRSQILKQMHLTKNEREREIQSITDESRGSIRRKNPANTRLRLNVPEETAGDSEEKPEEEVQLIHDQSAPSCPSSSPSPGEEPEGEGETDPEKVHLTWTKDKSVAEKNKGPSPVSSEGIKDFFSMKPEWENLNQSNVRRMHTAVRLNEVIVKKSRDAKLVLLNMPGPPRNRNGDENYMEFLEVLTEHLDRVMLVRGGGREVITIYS
# Experiment: KCC2 modulator potency by thallium flux, dose response, cell-based, HEK293 KCC2, FluoZin-2 fluorescence (AID 1736)
# Conditions: not given
row,EC50 [µM],Structure (SMILES)
1,8190,CC1CCCCN1C(=O)CSc1ccc(-c2ccc(F)cc2)nn1 (configuration not stated) [2-[6-(4-Fluoro-phenyl)-pyridazin-3-ylsulfanyl]-1-(2-methyl-piperidin-1-yl)-ethanone]
2,3.08,CC1CCN(C(=O)CSc2ccc(-c3ccc(F)cc3)nn2)CC1 [2-[6-(4-Fluoro-phenyl)-pyridazin-3-ylsulfanyl]-1-(4-methyl-piperidin-1-yl)-ethanone]
3,0.182,"Cc1cc(NC(=O)CSc2ccc(-c3ccc(F)cc3)nn2)no1 [2-[6-(4-fluorophenyl)pyridazin-3-yl]sulfanyl-N-(5-methyl-1,2-oxazol-3-yl)acetamide]"
4,2410,"CCC(Cc1ccccc1)NC(=O)CN(C)S(=O)(=O)c1ccc2c(c1)c(=O)n(C)c(=O)n2C (configuration not stated) [2-[(1,3-dimethyl-2,4-dioxo-6-quinazolinyl)sulfonyl-methylamino]-N-(1-phenylbutan-2-yl)acetamide]"
5,3.96,Cn1c(SCc2ccccc2Cl)nc2ccccc21 [2-[(2-chlorobenzyl)thio]-1-methyl-1H-benzimidazole]
6,86.4,Cc1[nH]c2ccccc2c1SCC(=O)N1CCN(c2ccccc2)CC1 [2-[(2-methyl-1H-indol-3-yl)thio]-1-(4-phenyl-1-piperazinyl)ethanone]
7,276,"Cc1ccc(/C=C2/Sc3ccccc3N(CC(=O)NCCCOC(C)C)C2=O)cc1 [2-[(2E)-2-[(4-methylphenyl)methylidene]-3-oxidanylidene-1,4-benzothiazin-4-yl]-N-(3-propan-2-yloxypropyl)ethanamide]"
8,3.8,COc1ccc(S(=O)(=O)N(CCc2ccccc2)CC(=O)O)cc1Cl [2-[(3-chloranyl-4-methoxy-phenyl)sulfonyl-(2-phenylethyl)amino]ethanoic acid]
9,0.313,O=C(NCCOc1ccccc1F)c1ccccc1SCc1ccc(F)cc1 [2-[(4-fluorobenzyl)thio]-N-[2-(2-fluorophenoxy)ethyl]benzamide]
10,1.64,Cc1ccc(NC(=O)c2ccccc2NS(=O)(=O)c2ccc(Cl)s2)cc1 [2-[(5-chloranylthiophen-2-yl)sulfonylamino]-N-(4-methylphenyl)benzamide]
11,0.461,"N#Cc1c(NC(=O)CSc2nc(N)cc(=O)[nH]2)sc2c1CCCCCC2 [2-[(6-amino-4-oxo-1H-pyrimidin-2-yl)sulfanyl]-N-(3-cyano-4,5,6,7,8,9-hexahydrocycloocta[b]thiophen-2-yl)acetamide]"
12,5.03,CCOC(=O)CNC(=O)C(Cc1ccccc1)NC(=O)OCc1ccccc1 (configuration not stated) [2-[[1-oxo-3-phenyl-2-(phenylmethoxycarbonylamino)propyl]amino]acetic acid ethyl ester] (Cbz-[ξF]-Gly-OEt)
13,4.63,"COc1ccc(-n2cnnc2SCC(=O)Nc2cc(S(=O)(=O)N3CCCCC3)ccc2C)cc1 [2-[[4-(4-methoxyphenyl)-1,2,4-triazol-3-yl]sulfanyl]-N-(2-methyl-5-piperidin-1-ylsulfonyl-phenyl)ethanamide]"
14,82,Cc1ccc(Cn2c(SCC(=O)Nc3cc(C)on3)nc3ccccc3c2=O)cc1 [2-[[4-keto-3-(4-methylbenzyl)quinazolin-2-yl]thio]-N-(5-methylisoxazol-3-yl)acetamide]
15,7.95,Cc1ccc(C(=O)CC=Nc2ccccc2C(N)=O)cc1 [2-[[(E)-3-(4-methylphenyl)-3-oxidanylidene-prop-1-enyl]amino]benzamide]
16,15,"COc1ccc(-c2cc(CNC(=O)CN(C)Cc3ccccc3)on2)cc1 [2-[benzyl(methyl)amino]-N-[[3-(4-methoxyphenyl)-1,2-oxazol-5-yl]methyl]acetamide]"
17,7.92,CC(=O)NC(C)C(=O)OCC(=O)c1ccc(-c2ccccc2)cc1 (configuration not stated) [2-acetamidopropanoic acid [2-oxo-2-(4-phenylphenyl)ethyl] ester]
18,0.0676,"CN(C)S(=O)(=O)c1cccc(NC(=O)c2cc3c(cc2Cl)N2CCCCC=C2NS3(=O)=O)c1 [2-chloranyl-N-[3-(dimethylsulfamoyl)phenyl]-5,5-bis(oxidanylidene)-8,9,10,11-tetrahydro-7H-azepino[2,1-c][1,2,4]benzothiadiazine-3-carboxamide]"
19,2.16,"Cc1ccc(-c2csc(NC(=O)CCNC(=O)c3ccccc3Cl)n2)cc1 [2-chloranyl-N-[3-[[4-(4-methylphenyl)-1,3-thiazol-2-yl]amino]-3-oxidanylidene-propyl]benzamide]"
20,6.81,"O=C(NC(=S)Nc1nc(-c2cccc([N+](=O)[O-])c2)cs1)c1ccccc1Cl [2-chloranyl-N-[[4-(3-nitrophenyl)-1,3-thiazol-2-yl]carbamothioyl]benzamide]"
21,31.3,Cc1cc([N+](=O)[O-])ccc1NCc1ccccc1 [2-methyl-4-nitro-N-(phenylmethyl)aniline]
22,34.1,"O=C(C1CCN(S(=O)(=O)c2cccc3nsnc23)CC1)N1CCc2ccccc2C1 [2-{[1-(2,1,3-benzothiadiazol-4-ylsulfonyl)piperidin-4-yl]carbonyl}-1,2,3,4-tetrahydroisoquinoline]"
23,5.35,"Cc1noc(/C=C/c2ccco2)c1S(=O)(=O)N1CCC(C(=O)N2CCc3ccccc3C2)CC1 [2-{[1-({5-[(E)-2-(2-furyl)vinyl]-3-methylisoxazol-4-yl}sulfonyl)piperidin-4-yl]carbonyl}-1,2,3,4-tetrahydroisoquinoline]"
24,8.15,"COc1cc(OC)c(C2=NOC(C(=O)N3CCc4ccccc4C3)C2)cc1Cl (configuration not stated) [2-{[3-(5-chloro-2,4-dimethoxyphenyl)-4,5-dihydro-5-isoxazolyl]carbonyl}-1,2,3,4-tetrahydroisoquinoline]"
25,4.18,"O=C(C1CCN(S(=O)(=O)c2cccs2)CC1)N1CCc2ccccc2C1 [3,4-dihydro-1H-isoquinolin-2-yl-(1-thiophen-2-ylsulfonyl-4-piperidinyl)methanone]"
26,10.6,"O=C(C1CCN(c2nnc(-n3cccc3)s2)CC1)N1CCc2ccccc2C1 [3,4-dihydro-1H-isoquinolin-2-yl-[1-(5-pyrrol-1-yl-1,3,4-thiadiazol-2-yl)-4-piperidyl]methanone]"
27,16,"Cc1cc(C(=O)COC(=O)CCc2nc3ccccc3s2)c(C)n1C [3-(1,3-benzothiazol-2-yl)propanoic acid [2-oxo-2-(1,2,5-trimethyl-3-pyrrolyl)ethyl] ester]"
28,14.8,"Cc1ccccc1OCC(=O)NNC(=O)CCN1C(=O)c2ccccc2C1=O [3-(1,3-dioxo-2-isoindolyl)-N'-[2-(2-methylphenoxy)-1-oxoethyl]propanehydrazide]"
29,1.18,"Cc1ccc(/C=C2\SC(=S)N(c3c(C)n(C)n(-c4ccccc4)c3=O)C2=O)cc1 [3-(1,5-dimethyl-3-oxo-2-phenyl-2,3-dihydro-1H-pyrazol-4-yl)-5-(4-methylbenzylidene)-2-thioxo-1,3-thiazolidin-4-one]"

# Same assay, conditions: inactive by the depositor's call
row,EC50 [µM],Structure (SMILES)
1,19.2,C=CCNC(=O)NC(=O)CSc1nc2cc([N+](=O)[O-])ccc2n1-c1cccc(C(F)(F)F)c1 [2-[5-nitro-1-[3-(trifluoromethyl)phenyl]benzimidazol-2-yl]sulfanyl-N-(prop-2-enylcarbamoyl)acetamide]
2,18.7,CN(C)S(=O)(=O)N(CC(=O)NCCSCc1ccccc1)c1ccccc1 [2-[N-(dimethylsulfamoyl)anilino]-N-[2-(phenylmethylthio)ethyl]acetamide]
3,24.7,O=C(NCCSCc1ccccc1)c1cc(S(=O)(=O)N2CCOCC2)ccc1F [2-fluoranyl-5-morpholin-4-ylsulfonyl-N-[2-(phenylmethylsulfanyl)ethyl]benzamide]

# From BindingDB's records for doi:10.7270/Q2Q52N1X (Vanderbilt Screening Center for GPCRs, Ion Channels and …, 2009)
